Reference: patent US20100041089A1, “IMPROVED METHOD FOR DETECTING CHEMICAL […]” (priority 2006, published 2010)

System: yeast genes (expressed mRNA)
Assay: DNA chip measurement of expressed mRNA of yeast genes after culture with a toxic chemical substance
Assay type: cell-based, Saccharomyces cerevisiae S288C
Settings: for level of expressed mRNA in the presence of chemical substance / level in the absence of chemical substance: cultured two hours with the chemical substance; for The level of expressed mRNA in the presence of chemical substance/The level of expressed mRNA in the absence of chemical substance: cultured two hours with substance
Procedure, shortened: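 S. cerevisiae S288C grown at 25 °C in YPD, exposed in log phase for 2 h to a toxicant at growth-inhibiting, non-lethal concentration. Cy3/Cy5-labelled cDNA from poly(A) mRNA hybridized to whole-genome chip at 65 °C >12 h. Ratio to untreated control, ≥2 significant.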

Question: How did the “The level of expressed mRNA in the presence of chemical substance/The level of expressed mRNA in the absence of chemical substance, yeast gene YBR036C” value (gene YBR036C, Metabolism protein genes, DNA chip fluorescence ratio) turn out when `[Cl][Pb][Cl]` [(4), PbCl2] was run?
Answer: 1.2

Question: And the “The level of expressed mRNA in the presence of chemical substance/The level of expressed mRNA in the absence of chemical substance, yeast gene YBR298C” value (gene YBR298C, Metabolism protein genes, DNA chip fluorescence ratio)?
Answer: 2.3

Question: What about the “The level of expressed mRNA in the presence of chemical substance/The level of expressed mRNA in the absence of chemical substance, yeast gene YDL067C” value (gene YDL067C (mitochondria-located protein gene), yeast cultured two hours with chemical substance, DNA chip fluorescence ratio to control) of the same compound?
Answer: 1.3

Question: What about the “The level of expressed mRNA in the presence of chemical substance/The level of expressed mRNA in the absence of chemical substance, yeast gene YDL078C” value (gene YDL078C, Metabolism protein genes, DNA chip fluorescence ratio) of the same compound?
Answer: 0.8

Question: And the “The level of expressed mRNA in the presence of chemical substance/The level of expressed mRNA in the absence of chemical substance, yeast gene YDL215C” value (gene YDL215C, Metabolism protein genes, DNA chip fluorescence ratio)?
Answer: 1.6

Question: And the “The level of expressed mRNA in the presence of chemical substance/The level of expressed mRNA in the absence of chemical substance, yeast gene YDR079W” value (gene YDR079W (mitochondria-located protein gene), yeast cultured two hours with chemical substance, DNA chip fluorescence ratio to control)?
Answer: 1.1

Question: What about the “The level of expressed mRNA in the presence of chemical substance/The level of expressed mRNA in the absence of chemical substance, yeast gene YDR297W” value (gene YDR297W, Metabolism protein genes, DNA chip fluorescence ratio) of the same compound?
Answer: 1.1

Question: And the “The level of expressed mRNA in the presence of chemical substance/The level of expressed mRNA in the absence of chemical substance, yeast gene YDR387C” value (gene YDR387C, Metabolism protein genes, DNA chip fluorescence ratio)?
Answer: 2.2

Question: What about the “The level of expressed mRNA in the presence of chemical substance/The level of expressed mRNA in the absence of chemical substance, yeast gene YGL035C” value (gene YGL035C, Metabolism protein genes, DNA chip fluorescence ratio) of the same compound?
Answer: 1.4

Question: And the “The level of expressed mRNA in the presence of chemical substance/The level of expressed mRNA in the absence of chemical substance, yeast gene YGR062C” value (gene YGR062C (mitochondria-located protein gene), yeast cultured two hours with chemical substance, DNA chip fluorescence ratio to control)?
Answer: 1.4

Question: What about the “The level of expressed mRNA in the presence of chemical substance/The level of expressed mRNA in the absence of chemical substance, yeast gene YGR287C” value (gene YGR287C, Metabolism protein genes, DNA chip fluorescence ratio) of the same compound?
Answer: 1.5

Question: And the “The level of expressed mRNA in the presence of chemical substance/The level of expressed mRNA in the absence of chemical substance, yeast gene YJL070C” value (gene YJL070C, Metabolism protein genes, DNA chip fluorescence ratio)?
Answer: 1.2

Question: And the “The level of expressed mRNA in the presence of chemical substance/The level of expressed mRNA in the absence of chemical substance, yeast gene YJL096W” value (gene YJL096W (mitochondria-located protein gene), yeast cultured two hours with chemical substance, DNA chip fluorescence ratio to control)?
Answer: 1.3

Question: What about the “The level of expressed mRNA in the presence of chemical substance/The level of expressed mRNA in the absence of chemical substance, yeast gene YJL180C” value (gene YJL180C (mitochondria-located protein gene), yeast cultured two hours with chemical substance, DNA chip fluorescence ratio to control) of the same compound?
Answer: 1.3

Question: What about the “The level of expressed mRNA in the presence of chemical substance/The level of expressed mRNA in the absence of chemical substance, yeast gene YKR009C” value (gene YKR009C, Metabolism protein genes, DNA chip fluorescence ratio) of the same compound?
Answer: 0.9

Question: And the “The level of expressed mRNA in the presence of chemical substance/The level of expressed mRNA in the absence of chemical substance, yeast gene YLR295C” value (gene YLR295C (mitochondria-located protein gene), yeast cultured two hours with chemical substance, DNA chip fluorescence ratio to control)?
Answer: 1.7

Question: What about the “The level of expressed mRNA in the presence of chemical substance/The level of expressed mRNA in the absence of chemical substance, yeast gene YLR351C” value (gene YLR351C, Metabolism protein genes, DNA chip fluorescence ratio) of the same compound?
Answer: 1.5

Question: And the “The level of expressed mRNA in the presence of chemical substance/The level of expressed mRNA in the absence of chemical substance, yeast gene YLR375W” value (gene YLR375W, Metabolism protein genes, DNA chip fluorescence ratio)?
Answer: 0.9

Question: And the “The level of expressed mRNA in the presence of chemical substance/The level of expressed mRNA in the absence of chemical substance, yeast gene YMR023C” value (gene YMR023C (mitochondria-located protein gene), yeast cultured two hours with chemical substance, DNA chip fluorescence ratio to control)?
Answer: 1.9

Question: And the “The level of expressed mRNA in the presence of chemical substance/The level of expressed mRNA in the absence of chemical substance, yeast gene YMR267W” value (gene YMR267W (mitochondria-located protein gene), yeast cultured two hours with chemical substance, DNA chip fluorescence ratio to control)?
Answer: 0.9

Question: And the “The level of expressed mRNA in the presence of chemical substance/The level of expressed mRNA in the absence of chemical substance, yeast gene YMR267W” value (gene YMR267W, Metabolism protein genes, DNA chip fluorescence ratio)?
Answer: 0.9

Question: And the “The level of expressed mRNA in the presence of chemical substance/The level of expressed mRNA in the absence of chemical substance, yeast gene YMR278W” value (gene YMR278W, Metabolism protein genes, DNA chip fluorescence ratio)?
Answer: 1.0

Question: And the “The level of expressed mRNA in the presence of chemical substance/The level of expressed mRNA in the absence of chemical substance, yeast gene YMR293C” value (gene YMR293C, Metabolism protein genes, DNA chip fluorescence ratio)?
Answer: 2.2

Question: And the “The level of expressed mRNA in the presence of chemical substance/The level of expressed mRNA in the absence of chemical substance, yeast gene YNL073W” value (gene YNL073W (mitochondria-located protein gene), yeast cultured two hours with chemical substance, DNA chip fluorescence ratio to control)?
Answer: 1.7

Question: And the “The level of expressed mRNA in the presence of chemical substance/The level of expressed mRNA in the absence of chemical substance, yeast gene YNR072W” value (gene YNR072W, Metabolism protein genes, DNA chip fluorescence ratio)?
Answer: 0.7

Question: What about the “The level of expressed mRNA in the presence of chemical substance/The level of expressed mRNA in the absence of chemical substance, yeast gene YOL096C” value (gene YOL096C, Metabolism protein genes, DNA chip fluorescence ratio) of the same compound?
Answer: 1.6

Question: What about the “The level of expressed mRNA in the presence of chemical substance/The level of expressed mRNA in the absence of chemical substance, yeast gene YOR180C” value (gene YOR180C, Metabolism protein genes, DNA chip fluorescence ratio) of the same compound?
Answer: 1.0

Question: And the “The level of expressed mRNA in the presence of chemical substance/The level of expressed mRNA in the absence of chemical substance, yeast gene YOR316C” value (gene YOR316C (mitochondria-located protein gene), yeast cultured two hours with chemical substance, DNA chip fluorescence ratio to control)?
Answer: 1.5

Question: What about the “The level of expressed mRNA in the presence of chemical substance/The level of expressed mRNA in the absence of chemical substance, yeast gene YOR363C” value (gene YOR363C, Metabolism protein genes, DNA chip fluorescence ratio) of the same compound?
Answer: 1.3

Question: And the “The level of expressed mRNA in the presence of chemical substance/The level of expressed mRNA in the absence of chemical substance, yeast gene YPL040C” value (gene YPL040C (mitochondria-located protein gene), yeast cultured two hours with chemical substance, DNA chip fluorescence ratio to control)?
Answer: 1.7

Question: And the “The level of expressed mRNA in the presence of chemical substance/The level of expressed mRNA in the absence of chemical substance, yeast gene YPL134C” value (gene YPL134C (mitochondria-located protein gene), yeast cultured two hours with chemical substance, DNA chip fluorescence ratio to control)?
Answer: 1.6

Question: What about the “The level of expressed mRNA in the presence of chemical substance/The level of expressed mRNA in the absence of chemical substance, yeast gene YPR184W” value (gene YPR184W, Metabolism protein genes, DNA chip fluorescence ratio) of the same compound?
Answer: 2.2

Question: And the “level of expressed mRNA in the presence of chemical substance / level in the absence of chemical substance” value (yeast gene YAL018C)?
Answer: 11.3

Question: And the “The level of expressed mRNA in the presence of chemical substance/The level of expressed mRNA in the absence of chemical substance” value (yeast gene YAL053W)?
Answer: 2.1

Question: What about the “level of expressed mRNA in the presence of chemical substance / level in the absence of chemical substance” value (yeast gene YAR047C) of the same compound?
Answer: 0.7

Question: What about the “level of expressed mRNA in the presence of chemical substance / level in the absence of chemical substance” value (yeast gene YAR064W) of the same compound?
Answer: 2.8

Question: What about the “level of expressed mRNA in the presence of chemical substance / level in the absence of chemical substance” value (yeast gene YBL044W) of the same compound?
Answer: 0.8

Question: And the “The level of expressed mRNA in the presence of chemical substance/The level of expressed mRNA in the absence of chemical substance” value (yeast gene YBL048W)?
Answer: 2.8

Question: And the “The level of expressed mRNA in the presence of chemical substance/The level of expressed mRNA in the absence of chemical substance” value (yeast gene YBL107C)?
Answer: 1.5

Question: What about the “level of expressed mRNA in the presence of chemical substance / level in the absence of chemical substance” value (yeast gene YBR012C) of the same compound?
Answer: 0.8

Question: And the “level of expressed mRNA in the presence of chemical substance / level in the absence of chemical substance” value (yeast gene YBR066C)?
Answer: 1.6

Question: What about the “level of expressed mRNA in the presence of chemical substance / level in the absence of chemical substance” value (yeast gene YBR124W) of the same compound?
Answer: 0.4

Question: What about the “level of expressed mRNA in the presence of chemical substance / level in the absence of chemical substance” value (yeast gene YBR162C) of the same compound?
Answer: 0.8

Question: And the “level of expressed mRNA in the presence of chemical substance / level in the absence of chemical substance” value (yeast gene YBR287W)?
Answer: 2.4

Question: And the “level of expressed mRNA in the presence of chemical substance / level in the absence of chemical substance” value (yeast gene YCL056C)?
Answer: 1.0

Question: And the “level of expressed mRNA in the presence of chemical substance / level in the absence of chemical substance” value (yeast gene YCR007C)?
Answer: 2.9

Question: What about the “level of expressed mRNA in the presence of chemical substance / level in the absence of chemical substance” value (yeast gene YDL046W) of the same compound?
Answer: 1.3

Question: What about the “The level of expressed mRNA in the presence of chemical substance/The level of expressed mRNA in the absence of chemical substance” value (yeast gene YDL072C) of the same compound?
Answer: 2.1

Question: And the “The level of expressed mRNA in the presence of chemical substance/The level of expressed mRNA in the absence of chemical substance” value (yeast gene YDL204W)?
Answer: 3.4

Question: What about the “The level of expressed mRNA in the presence of chemical substance/The level of expressed mRNA in the absence of chemical substance” value (yeast gene YDL222C) of the same compound?
Answer: 3.9

Question: And the “level of expressed mRNA in the presence of chemical substance / level in the absence of chemical substance” value (yeast gene YDR090C)?
Answer: 1.2

Question: And the “level of expressed mRNA in the presence of chemical substance / level in the absence of chemical substance” value (yeast gene YDR128W)?
Answer: 0.9
